{"source": "patent EP2873675A1", "about": "“Peptide-based peroxidase inhibitors and methods of using same” (The Medical College of Wisconsin, Inc., priority 2013, dated 2015)", "key": {"[1]": {"system": "SCD mice", "test": "Vessel wall thickness of facialis arteries from SCD mice", "assay_type": "in vivo", "settings": "0.3 mg/kg/d, 3 weeks; after papaverine; P=0.10", "description": "Vessel Wall Thickness. After completing the vasodilatation studies, the pressurized vessels were maximally dilated by addition of papaverine (10^-4 mol/L, 4 min), and outside and inside diameters recorded. An index of wall thickness was calculated using the following formula; ([outside diameter/inside diameter]/2)/outside diameter, as previously described."}, "[2]": {"system": "lung cancer mice", "test": "BHT-treated lung cancer mice (BALF activities, tumor number)", "assay_type": "in vivo", "settings": "BHT 300 mg/kg single dose; 0.3 mg/kg/d; after 3 days", "description": "Inhibiting MPO decreases PMN degranulation in lung cancer mice. PMNs are considered to play a causal role in initiating tumor formation. Effects of KYC on PMN recruitment and tumor formation in lung cancer mice were determined. Briefly, mice were treated with BHT (single dose: 300 mg/kg) and KYC (0.3 mg/kg/d)."}, "[3]": {"system": "facialis arteries from non-treated SCD mice", "test": "Vasodilatation of facialis arteries from untreated SCD mice, treated ex vivo in the vessel bath", "settings": "1.5 µg/ml added to vessel bath, 20 min", "description": "For vessels treated with KYC (ex-vivo): Using untreated SCD mice, the vessels were isolated/ cannulated the same as for the mice treated with KYC in vivo. After the control dose-response curve using acetylcholine (ACh, 10^-7 - 10^-4 M) and subsequent washing, the vessels were incubated with KYC 1.5 µg/ml for 20 minutes, pre-constricted, and exposed to acetylcholine (ACh, 10^-7 - 10^-4 M). Vasodilation to papaverine (2.0X10^-4 M) was determined after all treatments to ensure smooth muscle viability. Vasodilation was calculated as a percent of maximal vessel diameter change."}, "[4]": {"system": "MPO", "test": "MPO-mediated nitration of LDL (dot blot)", "assay_type": "biochemical", "settings": "MPO/H2O2/NaNO2, 37 °C, 4 h", "description": "MPO-mediated Nitration of LDL: LDL (0.5 mg/mL) was incubated with MPO (50 nM), H2O2 (50 µM), NaNO2 (50 µM) and increasing concentrations of KYC in phosphate buffer (100 mM, pH 7.4) containing DTPA (100 µM) at 37 °C for 4 h. Reactions were stopped by addition of catalase (2,000 units/mL). Formation of NO2Tyr was assessed by dot blot analysis. Briefly, LDL solutions were mixed with 1% SDS and centrifuged (12000 g, 15 min). Aliquots of supernatants were applied to a nitrocellulose membrane with a dot blot apparatus (Biorad model: Bio-Dot). The levels of NO2Tyr were visualized using a rabbit polyclonal anti-NO2Tyr antibody (EMD, Gibbstown, NJ) and the ECL plus kit from Thermo-Peirce (Rockford, IL)."}, "[5]": {"system": "MPO", "test": "MPO-catalyzed HOCl production (taurine/TMB assay)", "assay_type": "biochemical", "description": "MPO-mediated HOCl Production. MPO (20 nM) was incubated with H2O2 (50 µM), NaCl (150 mM), taurine (5 mM) and increasing concentrations of KYC in phosphate buffer (100 mM, pH 7.4) which also contained diethylene triamine pentaacetic acid (DTPA, 100 µM) to prevent non-specific, divalent metal cation oxidation for 30 min. Reactions were halted by addition of catalase. Chlorotaurine was quantified using the 3,3-,5,5-tetramethylbenzidine (TMB) assay. Briefly, 400 µL of reaction solution was mixed with 100 µL of 2 mM TMB, 100 µM NaI containing 10% dimethylformamide (DMF) in 400 mM acetate buffer (pH 5.4). After 5 min, absorbance (650 nm) was recorded on a UV/Vis spectrophotometer (Agilent Model 8453).\nMPO-catalyzed HOCl Production: MPO (20 nM) was incubated with H2O2 (50 µM), NaCl (150 mM), taurine (5 mM) and increasing concentrations of KYC in a phosphate buffer (100 mM, pH 7.4) containing diethylene triamine pentaacetic acid (DTPA, 100 µM) to prevent non-specific, divalent metal cation oxidation for 30 min. Reactions were halted by addition of catalase (2,000 units/mL). Chlorotaurine was quantified using the TMB assay (66). Briefly, 400 µL of reaction solution was mixed with 100 µL of 2 mM TMB, 100 µM NaI containing 10% dimethylformamide (DMF) in 400 mM acetate buffer (pH 5.4). After 5 min, absorbance (650 nm) was recorded on a UV/Vis spectrophotometer (Agilent Model 8453)."}, "[6]": {"system": "MPO", "test": "MPO-mediated LDL oxidation (conjugated diene formation, absorbance at 234 nm)", "assay_type": "biochemical", "settings": "25 µM; in the absence of nitrite"}, "[7]": {"system": "C57BL/6J mice", "test": "Acute lung injury: pulmonary retention of Q-dot labeled EMPs", "assay_type": "in vivo", "settings": "pretreatment and treatment of EMP-injected mice", "description": "KYC Inhibits Acute Lung Injury. Inflammation and sepsis induce the release of endothelial cell microparticles (EMPs). Increased production of EMPs is hypothesized to play a causal role in the mechanisms mediating acute lung injury (ALI). To test this hypothesis, the inventors incubated human umbilical vein endothelial cells with PAI-1, which is well-recognized for inducing endothelial cells to generate EMPs. The EMPs were collected by ultracentrifugation, resuspended in physiological saline solution and then labeled with Q-dots. The Q-dot labeled EMPs were counted and then injected into C57BL/6J mice to achieve a final concentration of 100,000 EMPs/mL of blood. Mice were pretreated with phosphate buffered saline (Fig. 6) or KYC and then were injected with Q-dot labeled EMPs alone or Q-dot labeled EMPs plus KYC (Fig. 6)."}}, "note": "Entries after “also recorded” stand apart in the source; their conditions may differ. Residues, ends and D or L forms follow the SMILES beside them.", "data": [{"smiles": "CC(=O)N[C@@H](CCCCN)C(=O)N[C@@H](Cc1ccc(O)cc1)C(=O)N[C@@H](CS)C(N)=O", "note": "[KYC, N-acetyl Lysyltyrosylcysteine amide] (Ac-Lys-Tyr-Cys-NH2)", "values": [{"measurement": "vessel wall thickness", "setting": "[1]", "value": "reduces vessel wall thickness"}, {"measurement": "MPO activity in BALF", "setting": "[2]", "value": "significantly decreased"}, {"measurement": "PMN number in BALF", "setting": "[2]", "value": "did not reduce"}, {"measurement": "elastase activity in BALF", "setting": "[2]", "value": "significantly decreased"}, {"measurement": "vasodilatation in response to ACh", "setting": "[3]", "value": "did not increase vasodilatation"}, {"measurement": "NO2Tyr in LDL", "setting": "[4]", "value": "markedly reduces"}, {"measurement": "MPO-catalyzed HOCl production, comparison at equimolar concentration", "setting": "[5]; 12.5 µM", "value": "comparable to that of tryptophan; also recorded: significantly more effective at inhibiting MPO-dependent HOCl production than GSH"}, {"measurement": "inhibition of HOCl production", "setting": "[5]; 12.5 µM", "value": "~75", "unit": "%"}, {"measurement": "MPO-dependent HOCl production", "setting": "[5]; 25 µM", "value": "completely inhibits; also recorded: completely ablated"}, {"measurement": "IC50", "setting": "[5]; MPO 20 nM, H2O2 50 µM, NaCl 150 mM, 30 min", "value": "~7", "unit": "µM"}, {"measurement": "MPO/H2O2-mediated LDL oxidation", "setting": "[6]", "value": "inhibited LDL oxidation; also recorded: did not increase LDL oxidation"}, {"measurement": "pulmonary retention of Q-dot labeled EMPs", "setting": "[7]", "value": "dramatically decreases pulmonary retention"}]}]}
